Tests used:
human cancer cells = conditions: small panel of human cancer cells; cited from earlier work
[1] = Body weight gain in high fat diet induced obesity model of Sprague-Dawley rats; format: in vivo; conditions: 7 mg/kg oral daily, 8 weeks
Source text: (§1) Induction: Selected healthy Sprague-Dawley rats were randomly assigned to control or various treatment groups (n=7). All the animals allocated to the obesity study were made experimentally obese through dietary intervention during the entire eight weeks induction period by feeding high fat diet ad libitum containing Bengal gram 32 g, Wheat floor 15 g, Yeast 1 g, Butter 2 g, Ground nut oil 8 g, Casein 5 g, Vanaspathi 20 g, Vitamin mix 05 g, Milk powder 12 g and Mineral Salt mixture 4.5 g per 100 g of high fat diet.
Treatment: Following 8 weeks of induction phase, the animals were treated orally (using oral feeding gavage) with either of the allocated test substances or vehicle daily for 8 weeks. […]
Body weights: Body weight of individual animal was recorded weekly during the entire duration of the study. Mean body weights for the treatment groups and control group were determined. The body weight gain was calculated at the end of 1st week, 4th week and 8th week after initiation of treatment in comparison to initial body weights. The percentage reduction in weight gain in the treatment groups was then calculated by comparing the weight gain in each treatment with that of control group. […]

adiponectin = assay: Serum adiponectin in high fat diet induced obese rats (ELISA); format: in vivo, Sprague-Dawley rats; conditions: 7 mg/kg daily, 8 weeks
Source text: as §1
(§2) Treatment: Following 8 weeks of induction phase, the animals were treated orally (using oral feeding gavage) with either of the allocated test substances or vehicle daily for 8 weeks. The animals of treatment groups were supplemented with 100 mg/kg body weight of LI/PD/044B/03 or 250 mg/kg body weight of LI/PD/044B/03 or 7 mg/kg body weight of sibutramine in 10 mL of 0.5% CMC in water for further 8 weeks. The control group of animals received only the vehicle (10 mL of 0.5% CMC in water) during this period. During the treatment phase, all animals were provided with the standard rodent diet till the end of the study.
Estimation of Biomarker Adiponectin: The serum adiponectin concentration for the control and treatment groups of animals were assessed using double antibody based sandwich rat adiponectin ELISA kit. […]

[2] = Serum LDL in high fat diet induced obese rats; format: in vivo, Sprague-Dawley rats; conditions: 7 mg/kg, 8 weeks
Source text: as §1, §2
Serum LDL concentration: The serum LDL levels in animals supplemented with different Treatments and control were estimated on Human Biochemistry Analyzer (German) and the results are summarized in FIG. 7B.

COc1ccc2c3c(c4cc(OC)c(OC)cc4c2c1)CN1CCCC1C3O (centres unmarked) [O-Methyltylophorinidine]
cytotoxic activity (human cancer cells): potent cytotoxic activity

CC(C)CC(N(C)C)C1(c2ccc(Cl)cc2)CCC1 (centres unmarked) [sibutramine]
reduction in body weight gain vs control group [1]: 40% | improvement in serum adiponectin concentration vs baseline (adiponectin): 6.3% | serum LDL concentrations [2]: significant reduction

ficustriol
cytotoxic activity (human cancer cells): inactive

From US8703215B2, “Agents from Ficus hispida for the amelioration of metabolic syndrome and related diseases” (Laila Nutraceuticals, priority 2009, dated 2014)
